Experimental data reported in ChEMBL document CHEMBL4270481, “ALK5 kinase inhibitory activity and synthesis of 2,3,4-substituted 5,5-dimethyl-5,6-dihydro-4H-pyrrolo[1,2-b]pyrazoles” (Eur J Med Chem, 2017).

How the values were obtained:
[1] = target: Cyclin-dependent kinase 2/cyclin E1 (Homo sapiens, UniProt P24941); experiment: Inhibition of human CDK2/cyclin E expressed in Sf9 insect cells using histone H1 as substrate in presence of [gamma-33P]ATP; format: cell-based
[2] = target: T1, TGF-beta receptor type-1 (Homo sapiens) (UniProt P36897); experiment: Inhibition of human ALK5 expressed in Sf9 insect cells assessed as residual enzyme activity at 1 uM using casein as substrate in presence of [gamma-33P]ATP relative to untreated control
T1 sequence (whole entry): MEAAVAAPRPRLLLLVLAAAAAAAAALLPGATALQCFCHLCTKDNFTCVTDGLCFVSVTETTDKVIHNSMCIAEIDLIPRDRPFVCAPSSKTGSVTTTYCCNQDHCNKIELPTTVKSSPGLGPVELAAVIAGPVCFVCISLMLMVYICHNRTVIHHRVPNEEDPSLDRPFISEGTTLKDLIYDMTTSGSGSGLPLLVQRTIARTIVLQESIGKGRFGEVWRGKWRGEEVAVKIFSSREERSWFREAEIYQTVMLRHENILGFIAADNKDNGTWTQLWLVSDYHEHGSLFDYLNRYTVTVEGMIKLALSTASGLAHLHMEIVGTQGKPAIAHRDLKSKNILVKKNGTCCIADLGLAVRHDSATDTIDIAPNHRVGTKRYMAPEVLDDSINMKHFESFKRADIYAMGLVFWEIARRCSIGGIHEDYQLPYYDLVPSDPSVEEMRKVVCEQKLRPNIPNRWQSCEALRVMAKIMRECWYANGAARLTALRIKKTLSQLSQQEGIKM

BJ = experiment: Cytotoxicity against human BJ cells assessed as decrease in cell proliferation up to 100 uM after 72 hrs by calcein AM staining-based assay

IC50 [1]: > 100 µM
Activity [2]: 6%
SMILES: Cc1cccc(-c2nn3c(c2-c2ccc(O)cc2)C(C)C(C)(C)C3)n1 (stereo not drawn)
Activity (BJ): Non-Toxic
